Source: article PMC5381205, “A Clinically Relevant Variant of the Human Hydrogen Sulfide-Synthesizing Enzyme Cystathionine β-Synthase: Increased CO Reactivity as a Novel Molecular Mechanism of Pathogenicity?” (Oxidative Medicine and Cellular Longevity, 2017)
Substitutions are numbered along the chain they refer to. Several values for one entry are separate records, joined by “and”; a condition that tells them apart may be missing. Equal entries are not always repeated. Where two headings read alike, the source gives them in different places.

Assays:
[1] = target: T1, human CBS p.P49L (ferrous heme) (Homo sapiens, UniProt P35520, P49L); assay: Stopped-flow kinetics of CO binding to ferrous CBS p.P49L; details: for CO binding fitted rate constant k2 / CO binding fitted rate constant k1 / CO binding fitted rate constant k3: 1 mM CO, 25°C; for CO binding fitted rate constant k2: 30% reaction amplitude
T1 construct: Recombinant full-length human CBS p.P49L was expressed and purified; made in house; host or cells: E. coli
T1 sequence (P35520 1-551 P49L): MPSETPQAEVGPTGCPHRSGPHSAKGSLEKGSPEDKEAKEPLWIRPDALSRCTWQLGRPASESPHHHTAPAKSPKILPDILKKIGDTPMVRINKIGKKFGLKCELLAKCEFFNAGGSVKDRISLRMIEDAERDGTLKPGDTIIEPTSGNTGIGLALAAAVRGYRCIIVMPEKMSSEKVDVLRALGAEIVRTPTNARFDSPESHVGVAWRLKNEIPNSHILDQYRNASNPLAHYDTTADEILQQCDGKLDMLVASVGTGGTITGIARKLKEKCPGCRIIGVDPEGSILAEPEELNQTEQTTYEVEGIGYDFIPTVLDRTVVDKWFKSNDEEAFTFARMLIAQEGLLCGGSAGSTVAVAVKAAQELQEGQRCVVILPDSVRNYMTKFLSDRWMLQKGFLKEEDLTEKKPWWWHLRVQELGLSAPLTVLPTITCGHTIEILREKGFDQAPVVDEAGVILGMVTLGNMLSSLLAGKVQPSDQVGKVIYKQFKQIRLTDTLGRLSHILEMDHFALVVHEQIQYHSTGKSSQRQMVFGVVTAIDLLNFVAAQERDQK
Experimental: (§1) Time-resolved absorption spectroscopy experiments were carried out in a thermostated stopped-flow instrument (DX.17MV, Applied Photophysics), equipped with a photodiode-array (light path, 1 cm). To avoid light-induced artifacts, the intensity of the white-light incident beam was decreased and a filter cutting UV light at λ < 360 nm was employed. Absorption spectra were recorded with an acquisition time of 10 ms per spectrum according to a logarithmic time scale. All reactions were carried out at 25°C in buffer A. CBS p.P49L was thoroughly flushed with nitrogen, after which glucose oxidase (4 units·ml^−1), catalase (13 μg·ml^−1), superoxide dismutase (12 units·ml^−1), and glucose (3 mM) were added to scavenge oxygen, hydrogen peroxide, and superoxide anion. The protein was then placed on ice, protected from light to prevent possible damaging photoreactions. When indicated, CBS p.P49L was incubated with AdoMet for ≥10 minutes, prior to reduction with 90 µM sodium dithionite. CO association kinetics were studied by mixing in the stopped-flow apparatus reduced CBS p.P49L, in the absence or presence of AdoMet, with CO solutions and the spectra recorded over time. CO dissociation kinetics were evaluated by mixing the Fe(II)-CO adduct of CBS p.P49L with NO• stock solutions, prepared by equilibrating degassed ultra-pure water with NO• gas at 1 atm, further kept on ice protected from light.
(§2) CO affinity titrations and CO binding and dissociation kinetic data were analyzed with the software MATLAB (Mathworks). Global fit analysis of spectral data was performed by singular value decomposition analysis combined with curve fitting.

[2] = target: T2, human WT CBS (ferrous heme) (Homo sapiens, UniProt P35520); assay: Stopped-flow kinetics of CO binding to ferrous WT CBS; details: WT enzyme
T2 construct: employed in this study, corresponding to full-length CBS WT and p.P49L purified in the absence; made in house
T2 sequence (P35520 1-551): T1 sequence (P35520 1-551 P49L) with L49P

[3] = target: T3, recombinant human CBS p.P49L (Homo sapiens, UniProt P35520, P49L); assay: H2S synthesis assay (amperometric and lead acetate methods), CBS p.P49L; type: biochemical; details: 37°C; for H2S-synthesizing activity stimulation by AdoMet: 500 μM AdoMet
T3 construct: Recombinant full-length human CBS p.P49L was expressed and purified; made in house; host or cells: E. coli
T3 sequence (P35520 1-551 P49L): T1 sequence (P35520 1-551 P49L)
Experimental: (§3) H2S production by recombinant human CBS variants was measured at 37°C, either by amperometry using a H2S-selective electrode (World Precision Instruments) or by the lead acetate method. Purified CBS (0.5–1 μM) was incubated for 10 minutes with 50 μM PLP, 260 U/ml catalase, and 0.4–2.0 mM homocysteine in the absence or presence of 0.5 mM AdoMet, after which 10 mM cysteine was added to trigger the reaction. Amperometric assays were performed using an ISO-H2S-2 hydrogen sulfide sensor coupled to an Apollo 4000 Free Radical Analyzer (World Precision Instruments). After recording H2S production for 3 minutes, the electrode was internally calibrated by adding 4 μM NaHS (corresponding to 2 μM H2S at pH 7.0). Finally, 50 μM o-acetylserine and 200 nM Entamoeba histolytica o-acetylserine sulfhydrylase were added to the reaction mixture to remove H2S from solution and bring the signal back to baseline. Activity assays by the lead acetate method were carried out in a thermostated cuvette under stirring, according to [5]. Lead acetate (400 μM) was added to the reaction mix prior to cysteine addition and H2S production monitored at 390 nm in an Agilent Cary-60 spectrophotometer.

recombinant human WT CBS [4] = target: T4, recombinant human WT CBS (Homo sapiens, UniProt P35520); assay: H2S synthesis assay (amperometric and lead acetate methods), WT CBS; type: biochemical; details: for H2S-synthesizing activity stimulation by AdoMet: 500 μM AdoMet, 37°C
T4 construct: employed in this study, corresponding to full-length CBS WT and p.P49L purified in the absence; made in house
T4 sequence (P35520 1-551): T1 sequence (P35520 1-551 P49L) with L49P
Experimental: as §3

recombinant human WT CBS [5] = target: T4, recombinant human WT CBS; details: isolated proteins and bacterial or human cell lysates; cited from earlier work
[6] = target: T1, human CBS p.P49L (ferrous heme); assay: Anaerobic CO titrations of reduced CBS p.P49L (UV-visible absorption); type: binding; details: 20°C
Experimental: UV-visible absorption spectra of oxidized and reduced CBS p.P49L and WT were recorded in an Agilent Cary-60 spectrophotometer. Anaerobic titrations of reduced CBS p.P49L with CO were performed at 20°C in an Agilent Cary-60 or a Shimadzu UVPC-1800 spectrophotometer. Gas exchange was prevented either by filling the quartz cuvette and sealing it with a rubber-cap or by adding mineral oil on top of the aqueous medium. Anaerobic conditions were ensured by nitrogen flushing and addition of glucose oxidase (4 units·ml^−1), catalase (13 μg·ml^−1), superoxide dismutase (12 units·ml^−1), and glucose (3 mM) to scavenge contaminant oxygen, hydrogen peroxide, and superoxide anion. CBS p.P49L and WT (1.4–1.6 μM in heme) were reduced with 90 μM sodium dithionite, diluted from a 45 mM stock solution (quantitated using ε314 nm = 8,043 M^−1·cm^−1 [50]). CO stock solutions were prepared by equilibrating thoroughly degassed buffer A with the pure gas at 1 atm, yielding 1 mM CO at 20°C. After each CO addition with gas-tight Hamilton syringes, the spectral changes were visually inspected in real time and a new addition was immediately made when no more changes were observed.
According to [16, 19, 20, 51], two apparent Kd (Kd1 and Kd2) were used to satisfactorily fit the CO affinity data. The Kd1 and Kd2 values were obtained by fitting the data to (1), where PL is the concentration of CO-bound CBS p.P49L, PT and LT are, respectively, the total CBS p.P49L and CO concentrations, and α1 and α2 are, respectively, the protein fractions binding CO at higher (Kd1) and lower (Kd2) affinity. (1) PL=α1PT+LT+Kd1−PT+LT+Kd1^2−4PTLT+α2PT+LT+Kd2−PT+LT+Kd2^2−4PTLT/2.
as §2

[7] = target: T5, human CBS p.P49L Fe(II)-CO adduct (Homo sapiens, UniProt P35520, P49L); assay: Stopped-flow kinetics of CO dissociation (displacement by NO•) from CBS p.P49L; type: binding; details: for CO displacement by NO• rate constant k2: 25% reaction amplitude
T5 construct: Recombinant full-length human CBS p.P49L was expressed and purified; made in house; host or cells: E. coli
T5 sequence (P35520 1-551 P49L): T1 sequence (P35520 1-551 P49L)
Experimental: as §1, §2

[8] = target: T6, human WT CBS Fe(II)-CO adduct (Homo sapiens, UniProt P35520); assay: Stopped-flow kinetics of CO dissociation (displacement by NO•) from WT CBS; type: binding; details: WT enzyme; NO• 900 µM after mixing; 75% relative amplitude; data not shown
T6 construct: employed in this study, corresponding to full-length CBS WT and p.P49L purified in the absence; made in house
T6 sequence (P35520 1-551): T1 sequence (P35520 1-551 P49L) with L49P

[9] = AdoMet-bound CBS p.P49L, 35% reaction amplitude

For `C[S+](CC[C@H](N)C(=O)[O-])C[C@H]1O[C@@H](n2cnc3c(N)ncnc32)[C@H](O)[C@@H]1O` (stereo partly drawn) [AdoMet, S-Adenosyl-L-methionine], the “fold increase in the CO association rate in the presence of AdoMet” value ([1]; p.P49L variant) was ~ 4.5 fold, the “fold increase in the CO association rate in the presence of AdoMet” value [2] was ~ 2 fold and the “H2S-synthesizing activity stimulation by AdoMet” value ([3]; p.P49L purified in the absence of PLP (PLP-untreated)) was 1.4 fold. For the same compound, the “H2S-synthesizing activity stimulation by AdoMet” value ([3]; p.P49L purified in the presence of 20 μM PLP (PLP-treated)) was 1.1 fold, the “AdoMet activation factor observed for the WT enzyme” value (recombinant human WT CBS [4]; WT enzyme, overall) was ≤ 2 fold and the “H2S-synthesizing activity stimulation by AdoMet” value (recombinant human WT CBS [4]; WT purified in the absence of PLP (PLP-untreated)) was 1.5 fold. The “H2S-synthesizing activity stimulation by AdoMet” value (recombinant human WT CBS [4]; WT purified in the presence of 20 μM PLP (PLP-treated)) was 1.9 fold and the “AdoMet activation factor of CBS enzymatic activity, as usually reported” value (recombinant human WT CBS [5]) was 2–5 fold.
With `Cc1ncc(COP(=O)(O)O)c(C=O)c1O` [PLP, Pyridoxal 5′-phosphate] the “basal H2S-synthesizing activity of p.P49L after PLP supplementation along the purification” value ([3]; p.P49L purified in the presence of 20 μM PLP (PLP-treated), compared with WT) was “basal activity similar to the WT enzyme”.
In the case of `[C-]#[O+]` [CO, Carbon monoxide], the Kd ([6]; AdoMet-bound p.P49L CBS (500 μM AdoMet), 30% relative amplitude, read-out: KdCO,2) is reported as 1500 nM and 2100 nM, the Kd ([6]; AdoMet-bound p.P49L CBS (500 μM AdoMet), 70% relative amplitude, upper limit, read-out: KdCO,1) is reported as ≤ 30 nM and the Kd ([6]; AdoMet-free p.P49L CBS, higher-affinity fraction, 60% relative amplitude, read-out: KdCO,1) is reported as 60 nM and 50 nM. The Kd ([6]; AdoMet-free p.P49L CBS, lower-affinity fraction, 40% relative amplitude, read-out: KdCO,2) was 21000 nM and 22000 nM, the “CO binding fitted rate constant k2” value ([1]; AdoMet-bound CBS p.P49L) was 0.26 s⁻¹ and the “CO binding fitted rate constant k1” value [1, 9] was 2.55 s⁻¹. The “CO binding fitted rate constant k3” value [1, 9] was 0.022 s⁻¹, the “CO binding fitted rate constant k1” value ([1]; AdoMet-free CBS p.P49L, 25% reaction amplitude) was 0.48 s⁻¹ and the “CO binding fitted rate constant k2” value ([1]; AdoMet-free CBS p.P49L) was 0.05 s⁻¹. For the same compound, the “CO binding fitted rate constant k3” value ([1]; AdoMet-free CBS p.P49L, 45% reaction amplitude) was 0.006 s⁻¹, the “CO displacement by NO• rate constant k2” value ([7]; AdoMet-bound CBS p.P49L (500 μM before mixing), 900 μM NO•, Figure 5(b) fit) was 0.038 s⁻¹ and the “CO displacement by NO• rate constant k1” value ([7]; AdoMet-bound CBS p.P49L (500 μM before mixing), 900 μM NO•, 75% reaction amplitude, Figure 5(b) fit) was 1.96 s⁻¹. The “CO displacement by NO• rate constant k2” value ([7]; AdoMet-free CBS p.P49L, 900 μM NO•, Figure 5(b) fit) was 0.035 s⁻¹, the “CO displacement by NO• rate constant k1” value ([7]; AdoMet-free CBS p.P49L, 900 μM NO•, 75% reaction amplitude, Figure 5(b) fit) was 1.93 s⁻¹ and the “CO displacement by NO• rate constant k1” value ([7]; CBS p.P49L, NO• 900 µM after mixing, 75% relative amplitude, no effect of AdoMet) was 2.0 ± 0.1 s⁻¹. For the same compound, the “CO displacement by NO• rate constant k1” value [8] was 2.0 ± 0.1 s⁻¹.
